Assay results as given in US5759573A, “Cyclodextrin liposomes encapsulating pharmacologic compounds and methods for their use” (DepoTech Corporation, priority 1995, dated 1998).

Experiments:
in vivo [1] = conditions: mouse, ip, 10 mg/kg
Protocol: (§4) The in vivo studies were done on male BDF1 mice weighing 18-25 g. […] The Emit^R assay is a homogeneous enzyme immunoassay technique based on the competition between drug present in the sample and drug labeled with the enzyme glucose-6-phosphate dehydrogenase for antibody binding sites. The limit of sensitivity was 0.02 μM.
(§5) Five μl of the peritoneal fluid samples were collected into a glass capillary pipette and diluted into 140 μl of 0.9% NaCl solution. […] Fifty μl of methanol was added to the pellet and vortexed to break multivesicular particles. The peritoneal cavities were then washed out thoroughly with 2-3 ml of 0.9% NaCl solution thrice. All samples were kept frozen at -20° C. until assayed by HPLC. Extraction of the samples was not necessary, no internal standard was used and there were no interfering peaks. RSTRIP computer program was used to analyze pharmacokinetic data. The area under the curve was determined by linear trapezoidal rule up to the last measured concentration and extrapolated to infinity.

in vivo [2] = conditions: mouse, sc, 10 mg/kg
Protocol: (§6) Subcutaneous (sc) pharmacokinetic studies were done using male BDF1 mice, weighing 20-25 grams. […] At each time point, 3 animals were sacrificed.
(§7) A full thickness of the abdominal wall tissue, including the entire skin and the underlying peritoneal membrane, was then excised from the costal margin to the inguinal area and from one flank to the other. The entire tissue specimen was homogenized after addition of at least 20 ml of distilled water with a Polytron homogenizer. The homogenate was sonicated for 60 seconds at a maximum setting with a Biosonic IV probe sonicator and filtered through a YMT ultrafiltration membrane (Amicon Corp, product #4104). All the samples were kept at -20° C. until assayed by HPLC. The RSTRIP program was used to perform the curve fitting. AUC was determined by linear trapezoidal rule up to the last measured concentration and extrapolated to infinity.

in vivo [3] = conditions: rat
Protocol: Rats were anesthetized with ketamine HCl (90 mg/kg and acetopromazine maleate (2.2 mg/kg, injected intramuscularly) and mounted in a conventional stereotaxic frame. Using a No. 15 blade, a midline cutaneous incision approximately 1 cm in length was made from the occipital crest to just behind the ears. The muscle ligament along the occipital crest at the skull was detached with a scalpel for 4 mm on either side of the midline. Using both the sharp and blunt ends of a periosteal elevator, the muscle from the occipital bone was freed down to the atlanto-occipital membrane. A retractor was placed in the incision to draw the muscle aside and obtain a clear view of the atlanto-occipital membrane. […] The needle was withdrawn, the skin was sutured with 3-0 silk, and the animal was given 10 ml lactated Ringer'solution subcutaneously for hydration.
At appropriate time points after injection, the atlanto-occipital membrane was again exposed under anesthesia and a sample of cerebrospinal fluid ranging from 30 to 60 μl was obtained through a 19-gauge needle. […] The cerebrospinal fluid samples were then kept frozen at -20° C. until analyzed using a high-performanceliquid chromatography (HPLC) system as described below.
After cerebrospinal fluid sampling, the animals were sacrificed with an overdose of ketamine (90 mg/kg) and acetopromazine (20 mg/kg), injected intraperitoneally. Blood samples were obtained via cardiac puncture and thorough exsanguination was performed. […] The calvarium was then exposed and carefully removed with a bone rongeur. The entire content of the cranial compartment was collected by scooping out the exposed brain with a spatula and washing the cranial vault thoroughly with distilled water. The spinal compartment content was then collected separately; the spinal cord was extruded forward into the cranial vault by pushing distilled water rapidly through a 19-gauge needle inserted into the lower lumbar spinal canal at a point 2.5 cm rostral to the origin of the tail. […] The cranial compartment samples were analyzed separately from the spinal canal samples. Both tissue samples were homogenized with water using a Polytron homogenizer.
The homogenized samples of brain or spinal cord were analyzed with HPLC after extraction as described by Alkayal et al. Ther. Drug Monit. 12:191 (1990). Briefly, in a glass centrifuge tube, a 500 μl aliquot of homogenate, 100 μl of theophylline aqueous solution (internal standard, 2.0 mg/ml), 250 μl trichloroacetic acid solution (10% in water), and 250 μl glacial acetic acid were placed and mixed. […] Ethyl acetate organic phase was decanted and evaporated under nitrogen at 60° C. The extracted residue was dissolved in 200 μl of mobile phase and 100 μl of the resulting solution was injected into the HPLC.
The RSTRIP computer program (MicroMath Scientific Software, Salt Lake City, Utah) was used to perform the pharmacokinetics analysis.

in vivo [4] = conditions: mouse, sc
Protocol: (§1) Five animals were in each group except for the control (given 0.9% NaCl alone), where 10 animals were used. […] Median survival time was used to calculate the "increased life span" (ILS) according to the formula: […]
(§2) The LD50 was calculated after probit transformation.

[5] = estimated from studies in vitro; read-out: minimal cytotoxic concentration; cited from earlier work
L1210 leukemia [6] = assay: Efficacy of single subcutaneous dose in murine L1210 model (increased life span); type: in vivo, mouse (BDF1); conditions: L1210, single sc dose on Day 1, increased life span
Source text: BDF1 and DBA/2J mice were from Simonsen Laboratories, Gilroy, Calif. The L1210 leukemia was maintained by serial intraperitoneal passage in DBA/2J female mice.
as §1
where T is the median survival time of treated groups and C is the median survival time for control groups.
as §2

L1210 leukemia [7] = assay: Efficacy of single intraperitoneal dose in murine L1210 model (increased life span); type: in vivo, mouse (BDF1); conditions: L1210, single ip dose on Day 1, increased life span
Protocol: (§3) There were five mice per group and fifteen mice were used as untreated controls (given 1 ml of 0.9% NaCl solution). The result was expressed as "increased life span".

[8] = Subcutaneous pharmacokinetics in BDF1 mice; conditions: mouse, 10 mg/kg sc
Protocol: as §6, §7

[9] = Toxicity and therapeutic index of single intraperitoneal dose; design: species or system mouse (BDF1); conditions: in vivo; mouse, single ip dose, probit transformation
Protocol: as §3
LD50 was calculated after probit transformation by PHARM/PCS program (MicroComputer Specialists, Philadelphia, Pa.). […] The therapeutic index (TI) for single IP dosage was calculated by the equation: […]

[10] = Intraperitoneal pharmacokinetics in BDF1 mice; conditions: mouse, 10 mg/kg ip
Protocol: as §4, §5

[11] = cited from earlier work

With `CN(Cc1cnc2nc(N)nc(N)c2n1)c1ccc(C(=O)N[C@@H](CCC(=O)O)C(=O)O)cc1` [unencapsulated methotrexate, methotrexate] as the compound, how does the AUC(0-inf) (in vivo [1]; peritoneal fluid) read?
The AUC(0-inf) was 233 µM·h.

And the Cmax (in vivo [1]; peritoneal fluid)?
The Cmax was 430 ± 13 µM.

What about the half-life (in vivo [1]; peritoneal fluid) of the same compound?
Its half-life is 32.4 min.

What about the AUC(0-inf) (in vivo [1]; plasma) of the same compound?
Its AUC(0-inf) is 11.2 µM·h.

And the half-life (in vivo [1]; plasma)?
The half-life was 54 min.

What about the AUC(0-inf) (in vivo [2]; plasma) of the same compound?
The AUC(0-inf) was 17.3 µM·h.

And the Cmax (in vivo [2]; plasma)?
The Cmax was 17.4 ± 5.2 µM.

What about the Tmax (in vivo [2]; plasma) of the same compound?
Its Tmax is 15 min.

And the half-life (in vivo [2]; plasma)?
The half-life was 31.8 min.

What about the half-life (in vivo [2]; skin at injection site) of the same compound?
Its half-life is 9.6 min.

What about the “Amount t1/2 (total amount of drug within CNS)” value (in vivo [3]) of the same compound?
The value was 0.03 days.

And the concentration at 4 h (in vivo [3])?
Its concentration at 4 h is 110 ± 20 nM.

What about the half-life (in vivo [3]; Amount t1/2 (total amount of drug within CNS)) of the same compound?
Its half-life is 43.2 min.

What about the half-life (in vivo [3]; Conc. t1/2 α (initial half-life, CSF)) of the same compound?
The half-life was 34.6 min.

What about the half-life (in vivo [3]; Conc. t1/2 β (terminal half-life, CSF)) of the same compound?
Its half-life is 432 min.

And the LD50 (in vivo [4])?
The LD50 was 2650 mg/kg.

And the MCC [5]?
The MCC was 500 nM.

What about the “maximum efficacy (ILS max)” value (L1210 leukemia [6]) of the same compound?
The value was 183%.

And the “maximum efficacy (ILS max)” value (L1210 leukemia [7])?
The value was 100%.

What about the “Amount t1/2 (total amount of methotrexate in skin)” value ([8]; injection site) of the same compound?
The value was 9.6 min.

What about the “Conc. t1/2 (plasma half-life)” value ([8]; plasma) of the same compound?
The value was 31.8 min.

What about the LD50 [9] of the same compound?
The LD50 was 2760 mg/kg.

What about the “Peritoneal Amount t1/2” value ([10]; total amount for MVL-CD-MTX) of the same compound?
Its value is 27 min.

And the “Peritoneal Conc. t1/2” value ([10]; unencapsulated drug or complex, or free methotrexate after MVL-CD-MTX)?
The value was 32.4 min.

What about the “absorption after im or sc administration (in words)” value ([11]; im or sc) of the same compound?
The value was “much more predictable and complete”.

And the “serum concentrations after im or sc versus oral dose (in words)” value ([11]; im or sc)?
Its value is “higher serum concentrations than after an oral dose”.

And the “absorption rate after oral administration (in words)” value ([11]; patients, oral)?
Its value is “highly variable among patients and appears to be saturable”.
